The supplement of paper PMC10307832

How the values were obtained:
Assay in all cases: relative viability (nuclei count vs DMSO), 5 days (fraction); higher = more cells survive
[1] = compound: C1=CC=C(C(=C1)C2=CC=C(C=C2)C3=CSC4=C3C(=C(C(=O)N4)C#N)O)O + COc1cccc2cc(-c3nc([C@H]4CC[C@H](C(=O)O)CC4)n4ncnc(N)c34)[nH]c12 [OSI-027] (partner 0.5 µM)
How it was run: (§1)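 Cells from lung cancer lines were seeded into 1536-well plates and, one day later, dosed by pin tool. Treatments were either a single drug or a fixed dose of an anchor drug with five library-drug doses (not always all listed) in √10 steps. After 5 days, nuclei were stained in a one-step fixation (final 0.05% Triton X-100, 1% formaldehyde, 1 ug/ml Hoechst) and counted on 4× images, and relative viability is the treated-to-vehicle nuclei ratio, as the median of duplicate plates.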

[2] = compound: C1=CC=C(C(=C1)C2=CC=C(C=C2)C3=CSC4=C3C(=C(C(=O)N4)C#N)O)O + Nc1ncn([C@H]2C[C@H](O)[C@@H](CO)O2)c(=O)n1 [Decitabine] (partner 2 µM)
How it was run: as §1

TGX 221 + AZD7762 = compound: CC1=CN2C(=O)C=C(N=C2C(=C1)C(C)NC3=CC=CC=C3)N4CCOCC4 [TGX 221] + NC(=O)Nc1cc(-c2cccc(F)c2)sc1C(=O)N[C@H]1CCCNC1 [AZD7762] (partner 0.2 µM)
How it was run: as §1

TGX 221 + Navitoclax = compound: CC1=CN2C(=O)C=C(N=C2C(=C1)C(C)NC3=CC=CC=C3)N4CCOCC4 [TGX 221] + CC1(C)CCC(c2ccc(Cl)cc2)=C(CN2CCN(c3ccc(C(=O)NS(=O)(=O)c4ccc(N[C@H](CCN5CCOCC5)CSc5ccccc5)c(S(=O)(=O)C(F)(F)F)c4)cc3)CC2)C1 [Navitoclax] (partner 0.5 µM)
How it was run: as §1

Row | Cell Line | relative viability ([1]; first compound 0.08 µM) | relative viability ([1]; first compound 0.253 µM) | relative viability ([1]; first compound 0.8 µM) | relative viability ([1]; first compound 2.53 µM) | relative viability ([1]; first compound 8 µM) | relative viability ([2]; first compound 0.08 µM) | relative viability ([2]; first compound 0.253 µM) | relative viability ([2]; first compound 0.8 µM) | relative viability ([2]; first compound 2.53 µM) | relative viability ([2]; first compound 8 µM) | relative viability (TGX 221 + AZD7762; first compound 0.08 µM) | relative viability (TGX 221 + AZD7762; first compound 0.253 µM) | relative viability (TGX 221 + AZD7762; first compound 0.8 µM) | relative viability (TGX 221 + AZD7762; first compound 2.53 µM) | relative viability (TGX 221 + AZD7762; first compound 8 µM) | relative viability (TGX 221 + Navitoclax; first compound 0.08 µM) | relative viability (TGX 221 + Navitoclax; first compound 0.253 µM) | relative viability (TGX 221 + Navitoclax; first compound 0.8 µM) | relative viability (TGX 221 + Navitoclax; first compound 2.53 µM) | relative viability (TGX 221 + Navitoclax; first compound 8 µM)
1 | NCI-H2347 | 0.454 | 0.572 | 0.348 | 0.419 | 0.378 | 0.629 | 0.605 | 0.578 | 0.675 | 0.566 | 0.639 | 0.61 | 0.639 | 0.583 | 0.547 | 0.796 | 0.681 | 0.598 | 0.432 | 0.49
2 | HCC-15 | 0.667 | 0.735 | 0.699 | 0.704 | 0.571 | 0.444 | 0.671 | 0.625 | 0.814 | 0.494 | 1.1 | 1.02 | 0.673 | 1.21 | 1.13 | 0.745 | 0.642 | 0.579 | 0.67 | 0.642
3 | HCC-44 |  | 0.588 | 0.518 | 0.558 | 0.523 | 1.01 | 1.05 | 0.985 | 0.895 | 0.934 | 0.992 | 1.04 | 1.02 | 1.1 | 1.09 | 0.992 | 0.981 | 0.918 | 0.837 | 0.732
4 | NCI-H1355 | 0.379 | 0.44 | 0.43 | 0.351 | 0.317 | 0.362 | 0.391 | 0.351 | 0.333 | 0.366 | 0.691 | 0.679 | 0.775 | 0.65 | 0.675 | 0.88 | 0.747 | 0.764 | 0.598 | 0.707
5 | NCI-H2405 | 0.648 | 0.656 | 0.607 | 0.679 | 0.65 | 0.798 |  | 0.774 | 0.66 | 0.725 | 0.706 | 0.665 | 0.724 | 0.665 | 0.547 | 0.701 | 0.815 | 0.804 | 0.668 | 0.636
6 | EKVX | 0.777 | 0.775 | 0.71 | 0.724 | 0.509 | 0.396 | 0.412 | 0.857 | 0.695 | 0.326 | 0.685 | 0.607 | 0.601 | 0.579 | 0.594 | 0.926 | 0.869 | 0.866 | 0.908 | 0.758
7 | NCI-H1993 | 0.442 | 0.539 | 0.543 | 0.595 | 0.595 | 0.633 | 0.672 | 0.622 | 0.62 | 0.572 | 0.676 | 0.657 | 0.685 | 0.899 | 0.785 | 0.761 | 0.848 | 0.884 | 0.831 | 0.82
8 | HOP-62 | 0.795 | 0.728 | 0.591 | 0.958 | 0.756 | 0.218 | 0.238 | 0.221 | 0.238 | 0.211 | 0.424 | 0.545 | 0.661 | 0.788 | 0.641 | 1.04 | 1.06 | 1.09 | 1.12 | 1.06
